Values after ≈ are worked out from the molar mass of the structure shown.
Tests used:
Staphylococcus aureus [1] = test: Antibacterial activity against TMP-resistant Staphylococcus aureus BHKS 227 incubated for 24 hrs by CLSI based broth microdilution assay; assay type: functional
[2] = Cytotoxicity against human NCM460 cells assessed as inhibition rate of cell growth at 100 uM incubated for 24 hrs by CCK8 assay relative to control; assay type: toxicity, cell-based
[3] = test system: Dihydrofolate reductase (Staphylococcus aureus); settings: dose 100.0 nM
Staphylococcus aureus [4] = test: Antibacterial activity against TMP-resistant Staphylococcus aureus BHKS 721 incubated for 24 hrs by CLSI based broth microdilution assay; assay type: functional
Dihydrofolate reductase = Dihydrofolate reductase (Staphylococcus aureus, UniProt P0A017); test: Inhibition of Staphylococcus aureus DHFR expressed in Escherichia coli BL21 (DE3) using DHF as substrate preincubated for 10 mins followed by substrate addition measured for 10 mins in presence of NADPH by spectrophotometry
Sequence of Dihydrofolate reductase (P0A017 whole entry): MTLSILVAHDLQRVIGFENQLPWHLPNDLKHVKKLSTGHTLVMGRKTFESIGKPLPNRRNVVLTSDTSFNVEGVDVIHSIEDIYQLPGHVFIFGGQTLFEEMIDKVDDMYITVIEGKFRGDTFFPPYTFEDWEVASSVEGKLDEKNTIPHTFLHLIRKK

[5] = Cytotoxicity against HEK293 cells assessed as inhibition rate of cell growth at 100 uM incubated for 24 hrs by CCK8 assay relative to control; assay type: toxicity, cell-based; settings: human
Staphylococcus aureus [6] = test: Antibacterial activity against Staphylococcus aureus ATCC 25923 incubated for 24 hrs by CLSI based broth microdilution assay; assay type: functional
Staphylococcus aureus [7] = test: Antibacterial activity against Staphylococcus aureus USA 300 incubated for 24 hrs by CLSI based broth microdilution assay; assay type: functional
Staphylococcus aureus [8] = test: Antibacterial activity against TMP-resistant Staphylococcus aureus BHKS 723 incubated for 24 hrs by CLSI based broth microdilution assay; assay type: functional

Structure (SMILES) | MIC (Staphylococcus aureus [1]) [µg/mL] | inhibition at 24 h, 100 µM [2] [%] | inhibition [3] [%] | MIC (Staphylococcus aureus [4]) [µg/mL] | IC50 (Dihydrofolate reductase) [nM] | inhibition at 24 h, 100 µM [5] [%] | MIC (Staphylococcus aureus [6]) [µg/mL] | MIC (Staphylococcus aureus [7]) [µg/mL] | MIC (Staphylococcus aureus [8]) [µg/mL]
COc1cc(C(C)C)c(Oc2cnc(N)nc2N)cc1-c1ccc(C(=O)O)cc1 | < 0.25 | 6.53 | 45.1 | 2 (≈ 5.07 µM) | 4.44 | 29.9 | 0.063 (≈ 0.16 µM) | 0.063 (≈ 0.16 µM) | 2 (≈ 5.07 µM)
COc1cc(C(C)C)c(Oc2cnc(N)nc2N)cc1C1CC1 | 4 (≈ 12.7 µM) | 4.06 | 35.3 | 16 (≈ 50.9 µM) | 27.8 | 0.06 | 1 (≈ 3.18 µM) | 0.5 (≈ 1.59 µM) | 32 (≈ 102 µM)
COc1cc(C(C)C)c(Oc2cnc(N)nc2N)cc1-c1ccc(C(F)(F)F)cc1 | 2 (≈ 4.78 µM) | 65 | 68.1 | 16 (≈ 38.2 µM) | 60.2 | 27.4 | 0.5 (≈ 1.19 µM) | 0.5 (≈ 1.19 µM) | 16 (≈ 38.2 µM)
COc1cc(C(C)C)c(Oc2cnc(N)nc2N)cc1CC(C)C | 4 (≈ 12.1 µM) | 67.4 | > 100 | 16 (≈ 48.4 µM) | 24.2 | 57.8 | 0.5 (≈ 1.51 µM) | 0.5 (≈ 1.51 µM) | 16 (≈ 48.4 µM)
COc1cc(C(C)C)c(Oc2cnc(N)nc2N)cc1-c1ccc(Cl)cc1 | 1 (≈ 2.6 µM) | 69.1 | 94.3 | 16 (≈ 41.6 µM) | 66.6 | 16.4 | 0.25 (≈ 0.65 µM) | 0.25 (≈ 0.65 µM) | 16 (≈ 41.6 µM)
CC(C)c1cc(OCC2CCC2)c(I)cc1Oc1cnc(N)nc1N | 1 (≈ 2.2 µM) | 13.2 | 61.3 | 4 (≈ 8.8 µM) | 7.69 | 57.9 | 0.125 (≈ 0.275 µM) | 0.125 (≈ 0.275 µM) | 4 (≈ 8.8 µM)
COc1ccc(Oc2cnc(N)nc2N)cc1-c1ccc(C(F)(F)F)cc1 | 4 (≈ 10.6 µM) | 68.3 | > 100 | 4 (≈ 10.6 µM) | 8.29 | 42.3 | 0.031 (≈ 0.0824 µM) | 0.016 (≈ 0.0425 µM) | 4 (≈ 10.6 µM)
CCc1cc(Oc2cnc(N)nc2N)c(C(C)C)cc1OC | 2 (≈ 6.61 µM) | 8.5 | – | 16 (≈ 52.9 µM) | 24.7 | 38.8 | 0.25 (≈ 0.827 µM) | 0.125 (≈ 0.413 µM) | 16 (≈ 52.9 µM)
CCOc1cc(C(C)C)c(Oc2cnc(N)nc2N)cc1I | 0.25 (≈ 0.604 µM) | 13.9 | 42.6 | 4 (≈ 9.66 µM) | – | 57.9 | 0.016 (≈ 0.0386 µM) | 0.016 (≈ 0.0386 µM) | 4 (≈ 9.66 µM)
COc1cc(C(C)C)c(Oc2cnc(N)nc2N)cc1-c1ccc2ccccc2c1 | 1 (≈ 2.5 µM) | 67.6 | 80.8 | > 32 | 148 | 13.5 | 0.5 (≈ 1.25 µM) | 0.25 (≈ 0.624 µM) | > 32
COc1cc(C(C)C)c(Oc2cnc(N)nc2N)cc1-c1cc(F)cc(F)c1 | 4 (≈ 10.4 µM) | 52.1 | > 100 | 32 (≈ 82.8 µM) | 41.8 | 45.2 | 1 (≈ 2.59 µM) | 0.5 (≈ 1.29 µM) | 32 (≈ 82.8 µM)
COc1cc(C(C)C)c(Oc2cnc(N)nc2N)cc1-c1cc(Cl)cc(Cl)c1 | 1 (≈ 2.38 µM) | 66.2 | 78.6 | 4 (≈ 9.54 µM) | 15.4 | 39.7 | 0.125 (≈ 0.298 µM) | 0.125 (≈ 0.298 µM) | 4 (≈ 9.54 µM)
CC(C)c1cc(OCC2CCCC2)c(I)cc1Oc1cnc(N)nc1N | 2 (≈ 4.27 µM) | 35.2 | 76.4 | 8 (≈ 17.1 µM) | 10.2 | 64 | 0.125 (≈ 0.267 µM) | 0.125 (≈ 0.267 µM) | 4 (≈ 8.54 µM)
COc1cc(C(C)C)c(Oc2cnc(N)nc2N)cc1-c1ccc(Cl)c(Cl)c1 | 2 (≈ 4.77 µM) | 34.1 | 60.8 | 8 (≈ 19.1 µM) | – | 41 | 0.5 (≈ 1.19 µM) | 3 (≈ 7.15 µM) | 8 (≈ 19.1 µM)
CCCCCOc1cc(C(C)C)c(Oc2cnc(N)nc2N)cc1I | 2 (≈ 4.38 µM) | 41.5 | 45.8 | 4 (≈ 8.77 µM) | 8.36 | 64.9 | 0.125 (≈ 0.274 µM) | 0.125 (≈ 0.274 µM) | 4 (≈ 8.77 µM)
COc1cc(C(C)C)c(Oc2cnc(N)nc2N)cc1-c1ccc2c(c1)OCCO2 | 4 (≈ 9.79 µM) | 64.7 | 27.2 | 16 (≈ 39.2 µM) | – | 19.6 | 0.5 (≈ 1.22 µM) | 0.25 (≈ 0.612 µM) | 16 (≈ 39.2 µM)

Reference: ChEMBL document CHEMBL5528082 (J Med Chem, 2024)
